Assay results as given in patent publication US20040006070A1, “Intraspinal continuous infusion of midazolam hydrochloride for the treatment of pain” (priority 2002, published 2004).
“And” between values parts separate entries of the source, which are not always exact repeats. Equal values may be shown once. “Also recorded” adds a separate entry of the source. Where a name gives a salt, the structure may show the parent alone.

How the values were obtained:
[1] = CSF fluid analysis and routine cultures; format: in vivo, sheep; conditions: for CSF RBC Count Post Mortum / CSF WBC Count Post Mortum / CSF Glucose Post Mortum / CSF Total Protein Post Mortum: day 43
Procedure: On day 43 after venous blood samples were taken, animals were euthanized (Beuthanasia 1 ml/4.5 kg IV bolus injection). CSF samples were obtained for analysis (1-2 ml drawn from L-7/S-1 after a laminectomy was performed to expose the dura) of glucose, total protein, and cell differential.

[2] = tested on: neuropathic pain model in the sheep; test: Neuropathic pain model in sheep, behavior monitoring (Observer 3.0) with visual analog pain score; format: in vivo; conditions: for average pain score: sheep #980 Dudley
Text: The neuropathic pain model in the sheep is created by placing four tight ligatures around the median, radial, or ulnar nerve (or a combination thereof) with 0-chromic gut suture. This method produces a chronic painful peripheral mononeuropathy which may be related to those conditions seen in humans with causalgia and reflex sympathetic dystrophy.
To evaluate animal behavior, the Observer 3.0 software (Noldus Information Technology, The Netherlands) was used to aid docmentation of a daily record of multiple traits. […] The behavior was then interpreted into a visual analog pain score (VAS), where 0 represents no pain and 100 represents severe pain.
Approximately three days prior to surgery each sheep will undergo a 15-minute baseline behavior evaluation. The observations made in this evaluation include, a computerized behavior software recording (the Observer) for 15minutes—gait monitoring—and recording of pain perception via visual analog scale-using the Observer. In some animals, recording of vital signs (blood pressure, heart rate, respirations per minute) will be performed using the Observer. Baseline values for pain perception are recorded via the mechanical stimulus device and/or behavior monitoring will also be performed at this time.
The sheep will be observed daily postoperatively. […] Observations of neuropathic pain development include changes in ambulation, alertness, appetite, urination, defecation, herding activity, body temperature and pain behaviors. This daily behavior is recorded utilizing the observer (an observational software system).

[3] = Toxicity in neuropathic pain sheep: clinical signs, necropsy, histopathology; format: in vivo
Text: Animals will be observed daily for any signs of clinical toxicity such as limping and loss of appetite. At necropsy the spinal cord will be examined for any gross changes. Histopathologic evaluation will be performed on all animals after drug studies are complete. These examinations will detect any neurotoxicity that may be present due to the spinal infusion of midazolam.

[4] = 1-5 mg/day, prior art; cited from earlier work
[5] = CSF, double blinded study, individual sheep, dose group not given, hydrochloride
[6] = open label sheep Red #473, 3 mg/day
[7] = open label sheep Sandy #518, 5 mg/day
[8] = open label sheep Toad #498, 10 mg/day
[9] = sheep Rowdy #819, 5 mg, daily values, hydrochloride, on May 29, 2001
[10] = sheep Rowdy #819, 5 mg, daily values, hydrochloride, on May 30, 2001

Cc1ncc2n1-c1ccc(Cl)cc1C(c1ccccc1F)=NC2 [Midazolam, midazolam hydrochloride]
Gross Exam Post Mortum ([1]; CSF, double blinded study, individual sheep, dose group (5 or 15 mg/day or saline) not given, hydrochloride): cloudy; also recorded: Colorless; also recorded: clear; also recorded: Pale pink; also recorded: Cloudy**
Glucose Post Mortum [1, 5]: 35 mg/dL and 25 mg/dL and 31 mg/dL and 38 mg/dL and 24 mg/dL and 47 mg/dL and 34 mg/dL
RBC Count Post Mortum [1, 5]: 480 µL⁻¹ and 725 µL⁻¹ and 4250 µL⁻¹ and 63 µL⁻¹ and 2 µL⁻¹ and 4 µL⁻¹ and 1325 µL⁻¹
Total Protein Post Mortum [1, 5]: 73 mg/dL and 40 mg/dL and 47 mg/dL and 35 mg/dL and 59 mg/dL and 39 mg/dL and 42 mg/dL
WBC Count Post Mortum [1, 5]: 12 µL⁻¹ and 80 µL⁻¹ and 22 µL⁻¹ and 8 µL⁻¹ and 1 µL⁻¹ and 4 µL⁻¹ and 29 µL⁻¹
Routine Cultures Post Mortum ([1]; CSF, individual sheep, cell wraps 'No' / 'Growth', dose group not given): No
CSF RBC Count Post Mortum [1, 6]: 772 µL⁻¹
CSF WBC Count Post Mortum [1, 6]: 4 µL⁻¹
CSF Glucose Post Mortum [1, 7]: 36 mg/dL
CSF RBC Count Post Mortum [1, 7]: 56 µL⁻¹
CSF Total Protein Post Mortum [1, 7]: 46.1 mg/dL
CSF WBC Count Post Mortum [1, 7]: 206 µL⁻¹
CSF Glucose Post Mortum [1, 8]: 40 mg/dL
CSF RBC Count Post Mortum [1, 8]: 2160 µL⁻¹
CSF Total Protein Post Mortum [1, 8]: 39.6 mg/dL
CSF WBC Count Post Mortum [1, 8]: 36 µL⁻¹
VAS score (0 no pain, 100 severe pain) ([2]; average on most days, intrathecal 3 to 6 mg/day, saline pretreatment 60 to 95): approximately 30
VAS score, average ([2]; first sheep (Rowdy), 5 mg/day): 30%
analgesia at higher doses ([2]; first sheep (Rowdy), after dose escalation to 15 mg/day): less analgesia
analgesic activity against neuropathic pain ([2]; intrathecal up to 5 mg/day): had analgesic activity against neuropathic pain
average pain score ([2]; 3 mg/day for 13 days): 32%
average pain score ([2]; 6 mg/day, remainder of the study): 35%
average pain score ([2]; reinstituted 3 mg/day escalated to 5 mg/day over 7 days): 65%
Other behavior: Observe operated leg ([2]; sheep Rowdy #819, 5 mg): 0.56%
Eating [2, 9]: 69.88%
Holding operated leg off the ground [2, 9]: 5.77%
Holding unoperated leg off the ground [2, 9]: 0.90%
Walking [2, 9]: 5.07%
Eating [2, 10]: 83.94%
Holding operated leg off the ground [2, 10]: 6.24%
Holding unoperated leg off the ground [2, 10]: 0.56%
Walking [2, 10]: 4.22%
Other behavior: Eating lying down ([2]; sheep Rowdy #819, 10 mg): 0.29%
Eating ([2]; sheep Rowdy #819, 15 mg): 3.29%
Holding operated leg off the ground ([2]; sheep Rowdy #819, 15 mg): 8.55%
Holding unoperated leg off the ground ([2]; sheep Rowdy #819, 15 mg): 0.81%
Other behavior: Bleating ([2]; sheep Rowdy #819, 15 mg): 0.86%
Other behavior: Pulling wool ([2]; sheep Rowdy #819, 15 mg): 1.11%
Other behavior: Standing ruminating ([2]; sheep Rowdy #819, 15 mg): 70.19%
Pain Score ([2]; sheep Rowdy #819, 15 mg): 40
Standing ([2]; sheep Rowdy #819, 15 mg): 13.79%
Walking ([2]; sheep Rowdy #819, 15 mg): 1.40%
tolerability ([3]; intrathecal up to 5 mg/day): tolerated well
necropsy, spinal cord lesions ([3]; sheep #980 Dudley): did not exhibit any spinal cord lesions
toxicities reported [4]: Sedation and somnolence
